Source: US7737182B2, “Pharmaceuticals for xerosis” (Taisho Pharmaceutical Co., Ltd., priority 2001, dated 2010)

Assays:
prostaglandin D receptor = biological target: T1, prostaglandin D receptor (Homo sapiens, UniProt Q13258); assay: Antagonism by BW A868C of the suppression of ADP-induced human platelet aggregation; format: cell-based; conditions: human PRP, ADP 3 μmol/L
T1 construct: separate the supernatant (PRP, or platelet-rich plasma); endogenous in cells; host or cells: human platelets (platelet-rich plasma from healthy male donors)
T1 sequence (Q13258 1-359): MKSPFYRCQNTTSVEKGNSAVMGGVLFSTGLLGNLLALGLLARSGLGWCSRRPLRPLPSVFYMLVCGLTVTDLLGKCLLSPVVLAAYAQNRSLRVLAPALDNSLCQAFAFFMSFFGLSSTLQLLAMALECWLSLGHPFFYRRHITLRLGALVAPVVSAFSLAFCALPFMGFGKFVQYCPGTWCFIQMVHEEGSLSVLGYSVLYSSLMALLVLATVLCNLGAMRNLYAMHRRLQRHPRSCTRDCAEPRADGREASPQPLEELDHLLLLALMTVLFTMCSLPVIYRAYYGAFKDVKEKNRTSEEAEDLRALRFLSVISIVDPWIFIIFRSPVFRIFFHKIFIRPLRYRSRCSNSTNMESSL
Method: The prostaglandin D receptor selective antagonist used in the test was ((+/−)-3-benzyl-5-(6-carboxyhexyl)-1-(2-cyclohexyl-2-hydroxyethylamino)-hydantoin) (hereunder designated BW A868C) (Sigma-Aldrich Japan K.K.)
BW A868C was diluted with ethanol to final concentrations of 0.03 μmol/L, 0.1 μmol/L, 0.3 μmol/L, 1 μmol/L, 3 μmol/L and 10 μmol/L.
Compound No. 7 and PGD2 were diluted with ethanol to 287 nmol/L and 300 nmol/L, respectively, for subsequent use.
Blood was taken from the cubital veins of human healthy males and sampled into a tube containing 3.13% sodium citrate. The blood sample was centrifuged at 1,000 rpm for 10 minutes at 20° C. to separate the supernatant (PRP, or platelet-rich plasma) and the residue was further centrifuged at 3,000 rpm for 10 minutes at 20° C. to separate the supernatant (PPP, or platelet-poor plasma). The platelet count of PRP was appropriately diluted with PPP to 30×10^4 platelets/μL for subsequent use.
Platelet aggregation was measured with a platelet aggregation measuring instrument (PAM-8C; MC MEDICAL Co., LTD.) by the Born method (Nature, vol. 194, p. 927, 1962). A portion (273 μL) of PRP (for the BW A868C groups, 1 μL of BW A868C was added at varying concentrations) was preincubated at 37° C. for 3 minutes with stirring at 1,000 rpm. After the preincubation, 1 μL of ethanol or a test substance (compound No. 7: final concentration at 95.7 nmol/L; PGD2: final concentration at 1000 nmol/L) was added and the mixture was incubated at 37° C. for 3 minutes with stirring at 1000 rpm. After the incubation, 25 μL of ADP (final concentration at 3 μmol/L) was added to induce platelet aggregation and a maximum percent aggregation for 5 minutes was measured.

[1] = system: NC/Nga mice manifesting atopic dermatitis; assay: Spontaneous itch-evoked scratching behavior of NC mice (Test Example 1); format: in vivo; conditions: for Inhibition rate (%) (percent itch suppression): 0.2 ml/mouse on dorsal skin, 24-hr scratching counts before vs after; for Efficacy (significance, paired t-test): scratching counts before vs after application
Method: About 20-week old NC/Nga mice each weighing about 30 g and manifesting atopic dermatitis were purchased from SLC and subjected to the following experiment. A magnet was buried in both hind paws of each mouse and by detecting its magnetism, the movement of the paws was measured with an itch measuring system (product of Neuroscience; when the mouse makes an action, the magnets move accordingly and a current flows through the coil; the moving magnets cause a change in the current, which is detected, measured and analyzed). Among the scratching actions, those lasting 1.5 seconds or longer were considered itch-evoked and their number was counted continuously. […] The subsequent 24-hr itch-evoked scratching behavior was measured and the number of itch-evoked scratchings after drug administration was compared with the initial count. The experimental data was processed to calculate the percent itch suppression on the basis of the total 24-hr itch-evoked scratching counts before and after drug application. For significance testing, the itch-evoked scratching counts that were obtained before and after drug application from individual animals in each group treated with a specific concentration of drug were processed by a paired t-test. Percent itch suppression (%)=(itch-evoked scratching count before drug application−itch-evoked scratching count after drug application)×100/itch-evoked scratching count before drug application (Results)

BALB/c male mice [2] = assay: Mouse skin's barrier function, treatment test, TEWL (Test Example 5); format: in vivo; conditions: barrier destroyed with acetone/diethyl ether; 0.01% in ethanol, 100 μL, once a day for 2 days
Method: Six-week-old BALB/c male mice in groups of eight were shaven in a rostral dorsolateral area of 4 cm^2 (2 cm×2 cm) with electric clippers and the shaven area was covered for 60 seconds with an absorbent cotton (2 cm×2 cm) impregnated with a 1:1 liquid mixture of acetone and diethyl ether. This treatment for destroying the skin's barrier function was performed for 3 consecutive days on once-a-day basis. Starting on the day next to completion of the treatment for barrier destruction at day 3, a solvent (ethanol, 100 μL) or a drug dissolved in the solvent (compound No. 7, PGD2, PGF2α, or PGE1, all being at 0.01% in an amount of 100 μL) was applied to the barrier destroyed site for 2 days on once-a-day basis. On the day next to the second application of the solvent or drug, the transepidermal water loss (TEWL) at the same site was measured with Tewameter (TM210 of Courage & Khazawa, Germany) to evaluate the drug's action.

BALB/c male mice [3] = assay: Mouse skin's barrier function, preventive test, TEWL (Test Example 6); format: in vivo; conditions: cohabitation with dermatitic NC/Nga mice; 0.01% in ethanol, 100 μL, once a day for 7 days
Method: Six-week-old BALB/c male mice in groups of six were shaven in a rostral dorsolateral area of 4 cm^2 (2 cm×2 cm) with electric clippers and kept in the same cage as NC/Nga mice that had developed dermatitis. From the day next to the start of cohabitation, a solvent (ethanol, 100 μL) or a drug dissolved in the solvent (compound No. 7, PGD2, PGF2α, or PGE1, all being at 0.01% in an amount of 100 μL) was applied to the shaven site for 7 days on once-a-day basis.
On the day next to the seventh application of the solvent or drug, the transepidermal water loss (TEWL) at the same site was measured with Tewameter (TM210 of Courage & Khazawa, Germany) to evaluate the drug's action, with the solvent-applied group being used as the control group.

[4] = system: NC mice induced to manifest dermatitis; assay: Dermatitis score in dermatitis manifesting NC mouse models (Test Example 2); format: in vivo; conditions: 0.1% in 100% ethanol, 200 μl on dorsal back, seven times a week for 4 weeks
Method: By suitably modifying a method known to the skilled artisan (Jpn. J. Pharmacol. 76, 175-183 (1998) Jun Hiroi, et al. Effects of Tacrolimus Hydrate (FK-506) Ointment on Spontaneous Dermatitis in NC/Nga Mice), the following test was conducted in order to confirm the antipruritic effect of compounds of the invention.
Animals: Four-week old SPF NC mice (male) were purchased from Japan SLC; right after their arrival, the SPF NC mice were kept together with dermatitis manifesting male NC mice (older than 20 weeks) for 2 weeks under the following conditions so as to induce itch-evoked scratching behavior. […]
Drug administration: To the dorsal backs of the 20-wk NC mice that were induced to manifest dermatitis as the result of cohabitation with the spontaneous dermatitis manifesting NC mice, 100% ethanol, compound No. 7 (0.01%) dissolved in 100% ethanol or tacrolimus (0.1%) dissolved in 100% ethanol was applied from an Eppendorf pipette in 200-μl doses seven times a week for a period of 4 weeks. […] Dermatitis score: Dermatitic symptoms were observed and measured once a week. […]

[5] = concentration 0.00001% in 100% ethanol

O=C(O)CCCCCCC1C(=O)N(Cc2ccccc2)C(=O)N1NCC(O)C1CCCCC1 (racemic) [BW A868C, ((+/−)-3-benzyl-5-(6-carboxyhexyl)-1-(2-cyclohexyl-2-hydroxyethylamino)-hydantoin)] was tested, and the “concentration of BW A868C with significant antagonism of the platelet aggregation suppressing action of PGD2” value (prostaglandin D receptor; PGD2 at 1000 nmol/L) was no less than 0.3 µmol/L and the “concentration of BW A868C with significant antagonism of the platelet aggregation suppressing action of compound No. 7” value (prostaglandin D receptor; compound No. 7 at 95.7 nmol/L) was no less than 0.1 µmol/L.
For COC(=O)CSCCCC[C@@H]1[C@@H](C#C[C@@H](O)C2CCCCC2)[C@H](O)C[C@H]1Cl [Compound No. 6], the “Inhibition rate (%) (percent itch suppression)” value ([1]; concentration 0.0001% in 100% ethanol) was 32.26% and the “Efficacy (significance, paired t-test)” value ([1]; concentration 0.0001%) was “* (*: P < 0.05)”.
With O=C(O)C#CCCCC[C@@H]1[C@@H](C#C[C@@H](O)C2CCCCC2)[C@H](O)C[C@H]1Cl [Compound No. 15] the “Inhibition rate (%) (percent itch suppression)” value ([1]; concentration 0.000001% in 100% ethanol) was 34.61% and the “Efficacy (significance, paired t-test)” value ([1]; concentration 0.000001%) was “* (*: P < 0.05)”.
For O=C(O)CSCCSC[C@@H]1[C@@H](C#C[C@@H](O)C2CCCCC2)[C@H](O)C[C@H]1Cl [Compound No. 25], the “Inhibition rate (%) (percent itch suppression)” value [1, 5] was 21.51% and the “Efficacy (significance, paired t-test)” value ([1]; concentration 0.00001%) was “* (*: P < 0.05)”.
With O=C(O)CCCCSC[C@@H]1[C@@H](C#C[C@@H](O)C2CCCCC2)[C@H](O)C[C@H]1Cl [Compound No. 32] the “Inhibition rate (%) (percent itch suppression)” value [1, 5] was 41.76% and the “Efficacy (significance, paired t-test)” value ([1]; concentration 0.00001%) was “** (**: P < 0.01)”.
In the case of CCCCC[C@H](O)/C=C/[C@H]1[C@H](O)CC(=O)[C@@H]1CCCCCCC(=O)O [PGE1], the “transepidermal water loss (TEWL) compared to the solvent-applied control group” value (BALB/c male mice [2]) is reported as “no significant difference from the control group” and the “transepidermal water loss (TEWL) compared to the control group” value (BALB/c male mice [3]) is reported as “significant decrease in TEWL”.
In the case of CCCCC[C@H](O)/C=C/[C@@H]1[C@@H](C/C=C\CCCC(=O)O)[C@@H](O)C[C@H]1O [PGF2α], the “transepidermal water loss (TEWL) compared to the solvent-applied control group” value (BALB/c male mice [2]) is reported as “no significant difference from the control group” and the “transepidermal water loss (TEWL) compared to the control group” value (BALB/c male mice [3]) is reported as “no significant difference from the control group”.
With C=CC[C@@H]1/C=C(\C)C[C@H](C)C[C@H](OC)[C@H]2O[C@@](O)(C(=O)C(=O)N3CCCC[C@H]3C(=O)O[C@H](/C(C)=C/[C@@H]3CC[C@@H](O)[C@H](OC)C3)[C@H](C)[C@@H](O)CC1=O)[C@H](C)C[C@@H]2OC [tacrolimus, reference compound] the “dermatitis score suppressing action compared to the vehicle group” value [4] was “significant dermatitis score suppressing action”.
